Columns and labels:
Test in all cases: relative viability (nuclei count vs DMSO), 5 days (fraction); higher = more cells survive
[1] = compound: CCCS(=O)(=O)Nc1ccc(F)c(C(=O)c2c[nH]c3ncc(-c4ccc(Cl)cc4)cc23)c1F [Vemurafenib] + Cc1nc(Nc2ncc(C(=O)Nc3c(C)cccc3Cl)s2)cc(N2CCN(CCO)CC2)n1 [Dasatinib] (partner 0.075 µM)
Method in brief: (§1)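 Relative viability equals treated-well nuclei counts divided by vehicle-well nuclei counts. Counts came from 4× images of lung cancer cell lines grown in 1536-well plates for 5 days after pin-tool dosing on the day after seeding. Dosing used one drug alone or a fixed anchor-drug dose plus five library-drug doses (not always all listed) in √10 steps, and values are medians of duplicate plates.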

[2] = compound: COc1cccc2cc(-c3nc([C@H]4CC[C@H](C(=O)O)CC4)n4ncnc(N)c34)[nH]c12 [OSI-027] + O=C(c1cc(Cc2n[nH]c(=O)c3ccccc23)ccc1F)N1CCN(C(=O)C2CC2)CC1 [Olaparib] (partner 8 µM)
Method in brief: as §1

[3] = compound: Cc1nc(NC(=O)N2CCC[C@H]2C(N)=O)sc1-c1ccnc(C(C)(C)C(F)(F)F)c1 [Alpelisib] + C[C@@H](Oc1cc(-c2cnn(C3CCNCC3)c2)cnc1N)c1c(Cl)ccc(F)c1Cl [Crizotinib] (partner 1 µM)
Method in brief: as §1

[4] = compound: Cc1nc(NC(=O)N2CCC[C@H]2C(N)=O)sc1-c1ccnc(C(C)(C)C(F)(F)F)c1 [Alpelisib] + N=C(N)NC(=N)NCCc1ccccc1 [Phenformin] (partner 250 µM)
Method in brief: as §1

Question: For UMC-11, which relative viability ([1]; first compound 0.03162 µM) is on record?
Answer: Its relative viability is 0.465.

Question: What about the relative viability ([1]; first compound 0.1 µM) of the same cell line?
Answer: Its relative viability is 0.459.

Question: And the relative viability ([1]; first compound 0.3162 µM)?
Answer: Its relative viability is 0.455.

Question: What about the relative viability ([1]; first compound 1 µM) of the same cell line?
Answer: The relative viability was 0.537.

Question: What about the relative viability ([2]; first compound 0.01 µM) of the same cell line?
Answer: The relative viability was 0.388.

Question: And the relative viability ([2]; first compound 0.03162 µM)?
Answer: Its relative viability is 0.42.

Question: What about the relative viability ([2]; first compound 0.1 µM) of the same cell line?
Answer: Its relative viability is 0.31.

Question: What about the relative viability ([2]; first compound 0.3162 µM) of the same cell line?
Answer: The relative viability was 0.349.

Question: What about the relative viability ([2]; first compound 1 µM) of the same cell line?
Answer: Its relative viability is 0.291.

Question: What about the relative viability ([3]; first compound 0.04 µM) of the same cell line?
Answer: The relative viability was 0.589.

Question: And the relative viability ([3]; first compound 0.1265 µM)?
Answer: The relative viability was 0.516.

Question: What about the relative viability ([3]; first compound 0.4 µM) of the same cell line?
Answer: The relative viability was 0.724.

Question: And the relative viability ([3]; first compound 1.265 µM)?
Answer: The relative viability was 0.688.

Question: What about the relative viability ([3]; first compound 4 µM) of the same cell line?
Answer: The relative viability was 0.536.

Question: What about the relative viability ([4]; first compound 0.04 µM) of the same cell line?
Answer: Its relative viability is 0.302.

Question: What about the relative viability ([4]; first compound 0.1265 µM) of the same cell line?
Answer: The relative viability was 0.325.

Question: And the relative viability ([4]; first compound 0.4 µM)?
Answer: The relative viability was 0.326.

Question: And the relative viability ([4]; first compound 1.265 µM)?
Answer: The relative viability was 0.31.

Question: What about the relative viability ([4]; first compound 4 µM) of the same cell line?
Answer: The relative viability was 0.262.
